Test results taken from ChEMBL document CHEMBL3351983, “Synthesis and biological evaluation of substituted 3-anilino-quinolin-2(1H)-ones as PDK1 inhibitors” (Bioorg Med Chem, 2014).

target: T1, 3-phosphoinositide-dependent protein kinase 1 (Homo sapiens) (UniProt O15530); test: Inhibition of PDK1 (unknown origin) at 10 uM using PDKtide substrate and [gamma-32P]ATP by scintillation counting method
T1 sequence (whole entry): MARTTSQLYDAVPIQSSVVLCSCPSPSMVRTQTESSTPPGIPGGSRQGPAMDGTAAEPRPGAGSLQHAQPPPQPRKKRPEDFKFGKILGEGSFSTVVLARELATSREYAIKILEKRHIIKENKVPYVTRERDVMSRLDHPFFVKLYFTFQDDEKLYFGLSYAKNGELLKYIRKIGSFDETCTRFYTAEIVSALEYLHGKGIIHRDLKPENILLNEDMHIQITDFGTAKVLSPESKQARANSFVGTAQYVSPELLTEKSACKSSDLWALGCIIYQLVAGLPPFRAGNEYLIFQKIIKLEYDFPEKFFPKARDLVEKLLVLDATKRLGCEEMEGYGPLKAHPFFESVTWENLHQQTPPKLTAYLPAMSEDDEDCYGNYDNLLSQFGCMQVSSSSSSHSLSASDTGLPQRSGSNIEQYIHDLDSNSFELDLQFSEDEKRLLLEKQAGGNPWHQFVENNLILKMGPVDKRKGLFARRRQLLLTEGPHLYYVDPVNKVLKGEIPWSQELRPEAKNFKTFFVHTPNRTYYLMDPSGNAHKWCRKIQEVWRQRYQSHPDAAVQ

Row | inhibition [%] | Structure (SMILES)
1 | 29 | COc1cccc(-c2cccc(Nc3cc4cc(NC(=O)N5CCCC5)ccc4[nH]c3=O)c2)c1
2 | 36 | O=C(Cc1ccc2[nH]c(=O)c(Nc3ccccc3)cc2c1)NCCN1CCCCC1
3 | 30 | N#Cc1cccc(Nc2cc3cc(NC(=O)N4CCCC4)ccc3[nH]c2=O)c1

Second part, the molecule before the results:

Row | Structure (SMILES) | inhibition [%]
4 | NC(=O)Nc1ccc2[nH]c(=O)c(Nc3cccc(NC(=O)N4CCCC4)c3)cc2c1 | 40
5 | O=C(Nc1ccc2[nH]c(=O)c(Nc3cccc(-c4nnn[nH]4)c3)cc2c1)N1CCCC1 | 14
6 | CCOc1cccc(Nc2cc3cc(NC(=O)N4CCCC4)ccc3[nH]c2=O)c1 | 23
7 | CC(=O)Nc1cccc(Nc2cc3cc(NC(N)=O)ccc3[nH]c2=O)c1 | 20
8 | NC(=O)Nc1ccc2[nH]c(=O)c(Nc3cc(CC(=O)NCCN4CCCCC4)cc(NC(=O)N4CCCC4)c3)cc2c1 | 40

target: T2, 3-phosphoinositide-dependent protein kinase 1 (Homo sapiens, UniProt O15530); test: Inhibition of PDK1 (unknown origin) using PDKtide substrate and [gamma-32P]ATP by scintillation counting method
T2 sequence (O15530 whole entry): T1 sequence (whole entry)

Row | Structure (SMILES) | IC50 [µM]
9 | CN[C@@H]1CCc2ccccc21 | 0.2
